Results from ChEMBL document CHEMBL2311249, “Development of inhibitors of the PAS-B domain of the HIF-2α transcription factor” (J Med Chem, 2013).

Experiments:
[1] = target: Aryl hydrocarbon receptor nuclear translocator/Endothelial PAS domain-containing protein 1 (Homo sapiens, UniProt P27540+Q99814); test: (§1) Inhibition of GST-tagged PAS-B domain of HIF-2alpha-Flag-tagged PAS-B domain of ARNT heterodimerization (unknown origin) by luminescence proximity assay; format: protein assay
[2] = target: Aryl hydrocarbon receptor nuclear translocator/Endothelial PAS domain-containing protein 1 (Homo sapiens, UniProt Q99814); test: as §1; format: protein assay
Chain of Aryl hydrocarbon receptor nuclear translocator/Endothelial PAS domain-containing protein 1 (Homo sapiens, UniProt Q99814) (P27540 whole entry, the tested form may be a part): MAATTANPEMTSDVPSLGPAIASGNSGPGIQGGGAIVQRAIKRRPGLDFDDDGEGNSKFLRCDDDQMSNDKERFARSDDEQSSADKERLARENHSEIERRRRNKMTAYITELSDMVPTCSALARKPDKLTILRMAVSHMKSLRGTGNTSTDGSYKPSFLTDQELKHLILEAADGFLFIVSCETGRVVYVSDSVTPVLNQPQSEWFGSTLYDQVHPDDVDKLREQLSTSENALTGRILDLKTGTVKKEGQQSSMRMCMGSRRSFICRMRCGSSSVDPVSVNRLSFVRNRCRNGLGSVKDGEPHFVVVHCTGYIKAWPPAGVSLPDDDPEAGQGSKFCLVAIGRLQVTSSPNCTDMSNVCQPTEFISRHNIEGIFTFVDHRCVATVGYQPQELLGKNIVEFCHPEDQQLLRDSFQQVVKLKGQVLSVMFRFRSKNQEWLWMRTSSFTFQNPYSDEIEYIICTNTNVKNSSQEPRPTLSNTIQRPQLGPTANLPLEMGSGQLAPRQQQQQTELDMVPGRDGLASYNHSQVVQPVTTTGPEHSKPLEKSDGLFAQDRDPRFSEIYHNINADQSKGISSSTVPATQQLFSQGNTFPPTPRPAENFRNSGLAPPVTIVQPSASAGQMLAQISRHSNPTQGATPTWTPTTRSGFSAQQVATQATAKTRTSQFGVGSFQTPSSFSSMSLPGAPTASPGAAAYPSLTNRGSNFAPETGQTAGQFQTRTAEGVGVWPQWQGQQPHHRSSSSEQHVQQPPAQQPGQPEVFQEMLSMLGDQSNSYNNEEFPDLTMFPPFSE
Chain of Aryl hydrocarbon receptor nuclear translocator/Endothelial PAS domain-containing protein 1 (Homo sapiens, UniProt Q99814) (Q99814 whole entry, the tested form may be a part): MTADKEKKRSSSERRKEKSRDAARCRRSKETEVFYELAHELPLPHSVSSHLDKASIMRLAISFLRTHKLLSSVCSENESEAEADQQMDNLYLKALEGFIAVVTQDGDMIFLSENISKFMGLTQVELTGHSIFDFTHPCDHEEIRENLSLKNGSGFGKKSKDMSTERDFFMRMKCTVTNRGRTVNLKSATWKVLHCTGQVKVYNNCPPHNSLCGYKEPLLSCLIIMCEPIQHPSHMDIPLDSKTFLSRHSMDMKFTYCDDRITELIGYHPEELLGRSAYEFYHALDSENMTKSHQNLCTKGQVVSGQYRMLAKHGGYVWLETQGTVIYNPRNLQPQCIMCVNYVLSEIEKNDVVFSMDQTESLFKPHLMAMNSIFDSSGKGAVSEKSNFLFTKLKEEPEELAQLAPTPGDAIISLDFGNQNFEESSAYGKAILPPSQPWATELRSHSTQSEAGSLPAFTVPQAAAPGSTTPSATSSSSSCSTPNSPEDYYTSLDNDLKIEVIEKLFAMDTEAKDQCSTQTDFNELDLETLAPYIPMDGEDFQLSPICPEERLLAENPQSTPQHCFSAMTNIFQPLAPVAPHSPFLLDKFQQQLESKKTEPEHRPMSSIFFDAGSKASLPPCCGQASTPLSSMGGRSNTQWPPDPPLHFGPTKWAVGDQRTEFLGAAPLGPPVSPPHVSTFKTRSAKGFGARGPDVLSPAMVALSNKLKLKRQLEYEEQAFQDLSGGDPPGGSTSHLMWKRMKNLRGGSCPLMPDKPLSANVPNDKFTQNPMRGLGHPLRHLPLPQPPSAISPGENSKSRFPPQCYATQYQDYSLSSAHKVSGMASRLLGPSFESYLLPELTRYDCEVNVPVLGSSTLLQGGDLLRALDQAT

[3] = target: Endothelial PAS domain-containing protein 1 (Homo sapiens, UniProt Q99814); test: Binding affinity to wild type PAS-B domain of HIF-2alpha (unknown origin) by isothermal calorimetry analysis
Chain of Endothelial PAS domain-containing protein 1 (Q99814 whole entry, the tested form may be a part): as above

Chain of Aryl hydrocarbon receptor nuclear translocator/Endothelial PAS domain-containing protein 1 (Homo sapiens, UniProt P27540+Q99814) (P27540 whole entry, the tested form may be a part): as the sequence (P27540 whole entry, the tested form may be a part) above
Chain of Aryl hydrocarbon receptor nuclear translocator/Endothelial PAS domain-containing protein 1 (Homo sapiens, UniProt P27540+Q99814) (Q99814 whole entry, the tested form may be a part): as the sequence (Q99814 whole entry, the tested form may be a part) above

Row | SMILES | IC50 [1] | IC50 [2] [µM] | Kd [3] [µM]
1 | O=[N+]([O-])c1c(Nc2ccc(Br)cc2)ccc2nonc12 | Not Active |  | 
2 | O=[N+]([O-])c1c(Nc2ccc(Cl)cc2)ccc2nonc12 | Not Active |  | 
3 | O=[N+]([O-])c1c(Nc2cc(F)cc(C(F)(F)F)c2)ccc2nonc12 |  | 0.43 | 
4 | O=[N+]([O-])c1c(Nc2cc(F)cc(F)c2)ccc2nonc12 |  | 2 | 0.73
5 | O=[N+]([O-])c1c(Nc2ccc(Cl)c(Cl)c2)ccc2nonc12 |  | 0.12 | 
6 | O=[N+]([O-])c1c(Nc2cc(F)cc(Cl)c2)ccc2nonc12 |  | 0.1 | 0.09
7 | O=[N+]([O-])c1ccccc1Nc1cc(F)cc(Cl)c1 | Not Active |  | 4.3
8 | O=[N+]([O-])c1c(Nc2cc(F)cc(Cl)c2)ccc2nn[nH]c12 |  | > 10 | > 20
9 | O=[N+]([O-])c1c(Nc2cc(F)cc(Cl)c2)ccc2[nH]cnc12 |  | < 5 | 
10 | Nc1nc2ccc(Nc3cc(F)cc(Cl)c3)c([N+](=O)[O-])c2[nH]1 |  | > 2 | 
11 | CN(c1cc(F)cc(Cl)c1)c1ccc2nonc2c1[N+](=O)[O-] |  | > 3 | > 10
12 | Fc1cc(Cl)cc(Nc2ccc3nonc3c2)c1 | Not Active |  | 3
13 | Nc1c(Nc2cc(F)cc(Cl)c2)ccc2nonc12 |  | > 30 | 6
14 | CC(=O)Nc1c(Nc2cc(F)cc(Cl)c2)ccc2nonc12 | Not Active |  | 
15 | O=C(CCl)Nc1c(Nc2cc(F)cc(Cl)c2)ccc2nonc12 | Not Active |  | 
16 | O=C1C=CC(=O)N1c1c(Nc2cc(F)cc(Cl)c2)ccc2nonc12 | Not Active |  | 
17 | CNS(=O)(=O)c1c(Nc2cc(F)cc(Cl)c2)ccc2nonc12 | Not Active |  | 
18 | CN(C)S(=O)(=O)c1c(Nc2cc(F)cc(Cl)c2)ccc2nonc12 | Not Active |  | 
19 | O=[N+]([O-])c1c(NCc2ccc(Cl)cc2)ccc2nonc12 | Not Active |  | 
20 | O=[N+]([O-])c1c(NCc2ccc(F)cc2Cl)ccc2nonc12 |  | 0.33 | 
21 | O=[N+]([O-])c1c(NCc2c(F)cccc2Cl)ccc2nonc12 | Not Active |  | 
22 | O=[N+]([O-])c1c(NCc2cc(F)cc(Cl)c2)ccc2nonc12 |  | 2 | 

Row | SMILES | IC50 [1] | IC50 [2] [µM] | Kd [3] [µM]
23 | O=[N+]([O-])c1c(NCc2cc(F)ccc2F)ccc2nonc12 |  | > 10 | 
24 | O=[N+]([O-])c1c(NCc2ccc(F)cc2C(F)(F)F)ccc2nonc12 |  | 0.5 | 0.54
25 | O=[N+]([O-])c1c(NCc2cc(F)ccc2C(F)(F)F)ccc2nonc12 | Not Active |  | 
26 | O=[N+]([O-])c1c(Sc2ccccc2)ccc2nonc12 | Not Active |  | 
27 | O=[N+]([O-])c1c(Sc2cccc(F)c2)ccc2nonc12 | Not Active |  | 
28 | O=[N+]([O-])c1c(Sc2cc(F)cc(Cl)c2)ccc2nonc12 | Not Active |  | 
29 | O=[N+]([O-])c1c(Oc2cc(F)cc(Cl)c2)ccc2nonc12 | Not Active |  | 
30 | COc1cccc(Nc2ccc3nonc3c2[N+](=O)[O-])c1 | Not Active |  | 
31 | O=[N+]([O-])c1c(Nc2ccc(F)cc2)ccc2nonc12 | Not Active |  | 
32 | O=[N+]([O-])c1c(Nc2cccc(Cl)c2)ccc2nonc12 |  | 0.18 | 
33 | O=[N+]([O-])c1c(Nc2cccc(C(F)(F)F)c2)ccc2nonc12 |  | 0.46 | 
34 | O=[N+]([O-])c1cccc(Nc2ccc3nonc3c2[N+](=O)[O-])c1 |  | 2.8 | 3
35 | O=[N+]([O-])c1c(Nc2cccc(F)c2)ccc2nonc12 |  | 2.1 | 2.2
36 | O=[N+]([O-])c1c(Nc2ccc(C(F)(F)F)cc2Cl)ccc2nonc12 | Not Active |  | 
37 | O=[N+]([O-])c1c(Nc2cccc(F)c2Cl)ccc2nonc12 | Not Active |  | 
38 | O=[N+]([O-])c1c(Nc2cccc(Cl)c2F)ccc2nonc12 |  | 0.76 | 
39 | O=[N+]([O-])c1c(Nc2ccc(F)c(Cl)c2)ccc2nonc12 |  | 0.17 | 0.4
40 | O=[N+]([O-])c1c(Nc2ccc(Cl)c(C(F)(F)F)c2)ccc2nonc12 |  | 0.09 | 0.17
41 | O=[N+]([O-])c1cc(Nc2ccc3nonc3c2[N+](=O)[O-])ccc1Cl |  | 0.4 | 
42 | O=[N+]([O-])c1c(NCc2ccccc2)ccc2nonc12 |  | > 5 | 
43 | Cc1ccc(CNc2ccc3nonc3c2[N+](=O)[O-])cc1 | Not Active |  | 
